We go through 4 molecules from US11472841B2, “Immunogenic composition” (MENICON CO., LTD., priority 2018, dated 2022).

Data set [1] has as its system female BALB/c mice. Kind of data set: Example 4: tissue specimen of back skin including administration site. It is filed as in vivo. The conditions noted are these: 7 days after the administration, intradermal. On the procedure:
(§1) Five-week-old female BALB/c mice (supplied by Charles River) were divided into administration groups of 2 mice and an untreated group of 3 mice. 100 μL of each test sample described in Table 5 was intradermally administered to mice of corresponding groups on days 0, 7, and 14 of the administration. […] The collected blood was incubated at 25° C. for 30 minutes and then preserved overnight at 4° C. to assemble a blood clot, centrifugation was performed at 1,000 to 1,200 × g at 4° C. for 20 minutes, and a supernatant was collected. The blood IgG value of the collected serum was measured using an IgG ELISA kit. The serum was diluted 200,000 times with a dilution buffer attached to the kit. In addition, the back skin including the administration site of the third test sample was collected after collecting blood to prepare a tissue specimen.
The method for preparing the above-described test sample is as follows. […]

The subject of data set [2] is female BALB/c mice. Description: Example 4: blood IgG value (IgG ELISA kit) after three intradermal administrations. Type of data set: in vivo. The conditions noted are these: in combination with any antigen protein (albumin, casein, lysozyme, papain); day 21. On the procedure:
as §1
The method for preparing the above-described test sample is as follows. That is, an antigen solution was prepared by dissolving an antigen protein in water, and the antigen solution and a 1.5 w/v % peptide composition (peptide compositions A to D described in Table 1) or PuraMatrix™ (which is manufactured by Corning Japan Ltd. and is a self-assembling peptide composition containing 1.0 w/v % of Ac-[…]-CONH2 (SEQ ID No: 18)) were mixed with each other so that the self-assembling peptide concentration became 0.75 w/v % and the antigen protein concentration became 0.25 mg/mL (=0.025 w/v %) to prepare a test sample. In addition, a sample obtained by mixing the above-described antigen solution with physiological saline so that the antigen protein concentration became 0.25 mg/mL was used as a control sample.
On the technique in general: ELISA stands for enzyme-linked immunosorbent assay.

For data set [3] the following is noted: antigen protein; cited from earlier work.

Consider Ac-RLDLRLALRLDLR-NH2 [SEQ ID No: 1], for which the “remaining of test sample inside the skin” value in the data set with female BALB/c mice [1] is listed as “the test sample remained inside the skin”. Besides, the “immunogenicity (blood IgG)” value in the data set with female BALB/c mice [2] is “enhanced”.

In the case of Ac-RLDLRLSLRLDLR-NH2 [SEQ ID No: 15], the “remaining of test sample inside the skin” value in the data set with female BALB/c mice [1] is “the test sample remained inside the skin”. Also, the “immunogenicity (blood IgG)” value in the data set with female BALB/c mice [2] is reported as “enhanced”.

Regarding “SEQ ID No: 16 (RLDLRLNLRLDLR; self-assembling peptide)”, the “immunogenicity (blood IgG)” value with female BALB/c mice [2] is “enhanced”.

B1: OVA: Ovalbumin antigen, Wako Pure Chemical Industries (protein, UniProt P01012 2-386, looked up)
Ovalbumin: GSIGAASMEFCFDVFKELKVHHANENIFYCPIAIMSALAMVYLGAKDSTRTQINKVVRFDKLPGFGDSIEAQCGTSVNVHSSLRDILNQITKPNDVYSFSLASRLYAEERYPILPEYLQCVKELYRGGLEPINFQTAADQARELINSWVESQTNGIIRNVLQPSSVDSQTAMVLVNAIVFKGLWEKAFKDEDTQAMPFRVTEQESKPVQMMYQIGLFRVASMASEKMKILELPFASGTMSMLVLLPDEVSGLEQLESIINFEKLTEWTSSNVMEERKIKVYLPRMKMEEKYNLTSVLMAMGITDVFSSSANLSGISSAESLKISQAVHAAHAEINEAGREVVGSAEAGVDAASVSEEFRADHPFLFCIKHIATNAVLFFGRCVSP
B1: in data set [3], the Isoelectric point result is “OVA: Ovalbumin (isoelectric point: 4.5, manufactured by Wako Pure Chemical Industries, Ltd., Cat. No”.
